Patent publication US10512265B2, “Pesticidally active heterocyclic derivatives with sulphur containing substituents” (Syngenta Participations AG, priority 2015, dated 2019)

How the values were obtained:
[1] = test system: Spodoptera littoralis (Egyptian cotton leaf worm); assay: Example B1: activity against Spodoptera littoralis, sprayed cotton leaf discs; format: in vivo; settings: foliar, 72 h, application rate 200 ppm, L1 larvae, 3 days after infestation, read-out: control of Spodoptera littoralis (at least one of mortality, anti-feedant effect, growth inhibition)
Protocol: Example B1: Activity Against Spodoptera littoralis (Egyptian Cotton Leaf Worm)
Cotton leaf discs were placed on agar in 24-well microtiter plates and sprayed with aqueous test solutions prepared from 10′000 ppm DMSO stock solutions. After drying the leaf discs were infested with five L1 larvae. The samples were assessed for mortality, anti-feedant effect, and growth inhibition in comparison to untreated samples 3 days after infestation. Control of Spodoptera littoralis by a test sample is when at least one of mortality, anti-feedant effect, and growth inhibition is higher than the untreated sample.

[2] = test system: Plutella xylostella (diamond back moth); assay: Example B3: activity against Plutella xylostella, treated artificial diet; format: in vivo; settings: 120 h, application rate 200 ppm, L2 larvae, 5 days after infestation, read-out: effect in at least one of the two categories (mortality or growth inhibition)
Protocol: Example B3: Activity Against Plutella xylostella (Diamond Back Moth)
(§1) 24-well microtiter plates with artificial diet were treated with aqueous test solutions prepared from 10′000 ppm DMSO stock solutions by pipetting. After drying, the plates were infested with L2 larvae (10 to 15 per well). The samples were assessed for mortality and growth inhibition in comparison to untreated samples 5 days after infestation.

[3] = test system: Diabrotica balteata (corn root worm); assay: Example B4: activity against Diabrotica balteata, sprayed maize sprouts; format: in vivo; settings: 96 h, application rate 200 ppm, L2 larvae, 4 days after infestation, read-out: effect in at least one of the two categories (mortality or growth inhibition)
Protocol: Example B4: Activity Against Diabrotica Balteata (Corn Root Worm)
as §1, with “Maize sprouts, placed on an agar layer in 24-well” for “24-well”, “plates” for “plates with artificial diet”, “spraying.” for “pipetting.”, “(6” for “(10”, “10” for “15”, “4” for “5”

[4] = test system: Frankliniella occidentalis (western flower thrips); assay: Example B7: activity against Frankliniella occidentalis, sprayed sunflower leaf discs; format: in vivo; settings: foliar, 168 h, application rate 200 ppm, population of mixed ages, 7 days after infestation
Protocol: Example B7: Activity Against Frankliniella occidentalis (Western Flower Thrips)
Sunflower leaf discs were placed on agar in 24-well microtiter plates and sprayed with aqueous test solutions prepared from […] stock solutions. After drying the leaf discs were infested with a Frankliniella population of mixed ages. The samples were assessed for mortality 7 days after infestation.

[5] = test system: Euschistus heros (neotropical brown stink bug); assay: Example B9: activity against Euschistus heros, sprayed soybean leaf; format: in vivo; settings: 120 h, application rate 200 ppm, N-2 nymphs, 5 days after infestation, read-out: effect in at least one of the two categories (mortality or growth inhibition)
Protocol: Example B9: Activity Against Euschistus heros(Neotropical Brown Stink Bug)
Soybean leaf on agar in 24-well microtiter plates were sprayed with aqueous test solutions prepared from 10′000 ppm DMSO stock solutions. After drying the leaf were infested with N-2 nymphs. The samples were assessed for mortality and growth inhibition in comparison to untreated samples 5 days after infestation.

[6] = test system: Aedes aegypti (yellow fever mosquito); assay: Example B11: activity against Aedes aegypti, dry deposits in tissue culture plates; format: in vivo; settings: 200 ppm in ethanol, dry deposit, adult females, after 48 h and/or 24 h
Protocol: Example B11: Activity Against Aedes Aegypti (Yellow Fever Mosquito)
Test solutions, at an application rate of 200 ppm in ethanol, were applied to 12-well tissue culture plates. Once the deposits were dry, five, two to five days old adult female Aedes aegypti were added to each well, and sustained with a 10% sucrose solution in a cotton wool plug. Assessment of knockdown was made one hour after introduction, and mortality was assessed at 24 and 48 hours after introduction.

[7] = test system: Spodoptera littoralis (Egyptian cotton leaf worm); assay: Example B2: activity against Spodoptera littoralis, systemic via lettuce grown on treated agar; format: in vivo; settings: 144 h, test rate 12.5 ppm, in agar, uptake by lettuce roots, Spodoptera eggs, 6 days after infestation, read-out: effect in at least one of the three categories (mortality, anti-feedancy, or growth inhibition)
Text: Example B2: Activity Against Spodoptera littoralis (Egyptian Cotton Leaf Worm)
Test compounds were applied by pipette from 10′000 ppm DMSO stock solutions into 24-well plates and mixed with agar. Lettuce seeds were placed on the agar and the multi well plate was closed by another plate which contains also agar. After 7 days the roots have absorbed the compound and the lettuce has grown into the lid plate. The lettuce leafs were now cut off into the lid plate. Spodoptera eggs were pipetted through a plastic stencil on a humid gel blotting paper and the plate closed with it.
The samples were assessed for mortality, anti-feedant effect and growth inhibition in comparison to untreated samples 6 days after infestation.

[8] = test system: Myzus persicae (green peach aphid); assay: Example B5: activity against Myzus persicae, sprayed sunflower leaf discs; format: in vivo; settings: foliar, 144 h, application rate 200 ppm, aphid population of mixed ages, 6 days after infestation
Protocol: Example B5: Activity Against Myzus persicae (Green Peach Aphid)
Sunflower leaf discs were placed on agar in a 24-well microtiter plate and sprayed with aqueous test solutions prepared from 10′000 ppm DMSO stock solutions. After drying, the leaf discs were infested with an aphid population of mixed ages. The samples were assessed for mortality 6 days after infestation.

[9] = test system: Tetranychus urticae (two-spotted spider mite); assay: Example B10: activity against Tetranychus urticae, sprayed bean leaf discs; format: in vivo; settings: foliar, 192 h, application rate 200 ppm, mixed population (mobile stages), 8 days after infestation
Protocol: Example B10: Activity Against Tetranychus urticae (Two-Spotted Spider Mite)
Bean leaf discs on agar in 24-well microtiter plates were sprayed with aqueous test solutions prepared from 10′000 ppm DMSO stock solutions. After drying the leaf discs were infested with a mite population of mixed ages. The samples were assessed for mortality on mixed population (mobile stages) 8 days after infestation.

[10] = test system: Bemisia tabaci (cotton white fly); assay: Example B8: activity against Bemisia tabaci, sprayed cotton leaf discs; format: in vivo; settings: foliar, 144 h, application rate 200 ppm, adult white flies, 6 days after incubation
Protocol: Example B8: Activity Against Bemisia tabaci (Cotton White Fly)
Cotton leaf discs were placed on agar in 24-well microtiter plates and sprayed with aqueous test solutions prepared from 10′000 ppm DMSO stock solutions. After drying the leaf discs were infested with adult white flies. The samples were checked for mortality 6 days after incubation.

[11] = test system: Myzus persicae (green peach aphid); assay: Example B6: activity against Myzus persicae, roots of pea seedlings in test solution; format: in vivo; settings: 144 h, test rate 24 ppm, roots of infested pea seedlings in test solution, 6 days
Protocol: Example B6: Activity Against Myzus persicae (Green Peach Aphid)
Roots of pea seedlings infested with an aphid population of mixed ages were placed directly in the aqueous test solutions prepared from 10′000 DMSO stock solutions. The samples were assessed for mortality 6 days after placing seedlings in test solutions.

melting point [°C] | Compound | mortality at 200 ppm [1] [%] | percent effect (mortality or growth inhibition) at 200 ppm [2] [%] | percent effect (mortality or growth inhibition) at 200 ppm [3] [%] | mortality at 200 ppm [4] [%] | percent effect (mortality or growth inhibition) at 200 ppm [5] [%] | pest or weed control at 200 ppm [6] [%] | percent control (mortality, anti-feedancy or growth inhibition) at 12.5 ppm [7] [%] | mortality at 200 ppm [8] [%] | mortality at 200 ppm [9] [%] | mortality at 200 ppm [10] [%] | mortality at 24 ppm [11] [%]
 | CCS(=O)(=O)c1cc(-c2ccc(C(F)(F)F)cc2)cnc1-c1ncc(-c2ccc(C(F)(F)F)nc2)n1C [Compound P1, 3-ethylsulfonyl-2-[1-methyl-5-[6-(trifluoromethyl)-3-pyridyl]imidazol-2-yl]-5-[4-(trifluoromethyl)phenyl]pyridine] | ≥ 80 | ≥ 80 | ≥ 80 | ≥ 80 | ≥ 80 | ≥ 80 |  |  |  |  | 
 | CCS(=O)(=O)c1cc(-c2ccc(C(F)(F)F)cc2)cnc1-c1ncc(-c2ccc(C(F)(F)F)cc2)n1C [Compound P2, 3-ethylsulfonyl-2-[1-methyl-5-[4-(trifluoromethyl)phenyl]imidazol-2-yl]-5-[4-(trifluoromethyl)phenyl]pyridine] | ≥ 80 | ≥ 80 | ≥ 80 | ≥ 80 |  | ≥ 80 |  |  |  |  | 
 | CCS(=O)(=O)c1cc(-c2ccc(F)cc2)cnc1-c1ncc(-c2ccc(C(F)(F)F)nc2)n1C [Compound P3, 3-ethylsulfonyl-5-(4-fluorophenyl)-2-[1-methyl-5-[6-(trifluoromethyl)-3-pyridyl]imidazol-2-yl]pyridine] | ≥ 80 | ≥ 80 | ≥ 80 | ≥ 80 |  | ≥ 80 | ≥ 80 | ≥ 80 | ≥ 80 |  | 
 | CCS(=O)(=O)c1cc(-c2ccc(F)cc2)cnc1-c1ncc(-c2ccc(F)cc2)n1C [Compound P4] | ≥ 80 | ≥ 80 | ≥ 80 |  |  |  | ≥ 80 | ≥ 80 |  | ≥ 80 | 
 | CCS(=O)(=O)c1cc(-c2ccc(Cl)cc2)cnc1-c1ncc(-c2ccc(C(F)(F)F)nc2)n1C [Compound P5] | ≥ 80 | ≥ 80 | ≥ 80 | ≥ 80 | ≥ 80 | ≥ 80 |  | ≥ 80 |  |  | 
 | CCS(=O)(=O)c1cc(-c2ccccc2)cnc1-c1ncc(-c2ccc(C(F)(F)F)nc2)n1C [Compound P6] | ≥ 80 | ≥ 80 | ≥ 80 | ≥ 80 |  |  | ≥ 80 | ≥ 80 |  |  | 
 | CCS(=O)(=O)c1cc(-c2ccc(Cl)cc2)cnc1-c1ncc(-c2ccc(SC(F)(F)F)cc2)n1C [Compound P7] | ≥ 80 | ≥ 80 | ≥ 80 |  |  | ≥ 80 |  |  |  |  | 
 | CCS(=O)(=O)c1cc(-c2ncccn2)cnc1-c1ncc(-c2ccc(C(F)(F)F)nc2)n1C [Compound P8] | ≥ 80 | ≥ 80 | ≥ 80 | ≥ 80 | ≥ 80 |  | ≥ 80 | ≥ 80 |  |  | ≥ 80
 | CCS(=O)(=O)c1cc(-c2ccc(Cl)cc2)cnc1-c1ncc(-c2ccc(S(=O)(=O)C(F)(F)F)cc2)n1C [Compound P9] | ≥ 80 | ≥ 80 | ≥ 80 |  |  | ≥ 80 |  |  |  |  | 
 | CCS(=O)(=O)c1cc(-c2ncccn2)cnc1-c1ncc(-c2cncc(C(F)(F)F)c2)n1C [Compound P10] | ≥ 80 | ≥ 80 | ≥ 80 | ≥ 80 | ≥ 80 |  | ≥ 80 | ≥ 80 |  |  | ≥ 80
 | CCS(=O)(=O)c1cc(-c2ncc(Cl)cn2)cnc1-c1ncc(-c2ccc(C(F)(F)F)nc2)n1C [Compound P11] | ≥ 80 | ≥ 80 | ≥ 80 |  | ≥ 80 | ≥ 80 | ≥ 80 | ≥ 80 |  |  | 
 | CCS(=O)(=O)c1cc(-c2ccc(Cl)cc2)cnc1-c1ncc(-c2ccc(C(F)(F)F)cc2)n1C [Compound P12] | ≥ 80 | ≥ 80 | ≥ 80 | ≥ 80 |  | ≥ 80 |  |  |  |  | 
 | CCS(=O)(=O)c1cc(-c2ccc(Cl)cc2)cnc1-c1ncc(-c2cccc(SC(F)(F)F)c2)n1C [Compound P13] | ≥ 80 | ≥ 80 | ≥ 80 |  |  |  |  |  |  |  | 
224 to 226 | CCS(=O)(=O)c1cc(-c2ncc(Cl)cn2)cnc1-c1ncc(-c2cnc(C(F)(F)F)nc2)n1C [Compound P14] |  |  |  |  |  |  |  |  |  |  | 
231 to 233 | CCS(=O)(=O)c1cc(-c2ncccn2)cnc1-c1ncc(-c2cnc(C(F)(F)F)nc2)n1C [Compound P15] |  |  |  |  |  |  |  |  |  |  | 
170 to 172 | CCS(=O)(=O)c1cc(-c2cccc(F)c2)cnc1-c1ncc(-c2ccc(C(F)(F)F)nc2)n1C [Compound P16] |  |  |  |  |  |  |  |  |  |  | 
193 to 195 | CCS(=O)(=O)c1cc(-c2cccc(F)c2)cnc1-c1ncc(-c2cnc(C(F)(F)F)nc2)n1C [Compound P17] |  |  |  |  |  |  |  |  |  |  | 
155 to 157 | CCS(=O)(=O)c1cc(-c2cccc(F)c2)cnc1-c1ncc(-c2cncc(C(F)(F)F)c2)n1C [Compound P18] |  |  |  |  |  |  |  |  |  |  | 
